Results: ChEMBL document CHEMBL4118101 (Bioorg Med Chem, 2018)
≈ marks a conversion by molar mass, not a printed value. Calls of active or inactive are those of the source. The calls are words filed in the database; no cut-off is given here.

Key:
Cryptococcus neoformans [1] = assay: Antifungal activity against Cryptococcus neoformans isolate CN2 measured after 48 hrs by CLSI M27-A3 protocol based method; format: functional
Candida albicans [2] = assay: Antifungal activity against Candida albicans ATCC 10231 measured after 48 hrs by CLSI M27-A3 protocol based method; format: functional; details: ATCC 10231, 48 h
Candida albicans [3] = assay: Antifungal activity against Candida albicans ATCC 64124 measured after 48 hrs by CLSI M27-A3 protocol based method; format: functional
Candida albicans [4] = assay: Antifungal activity against fluconazole/ITC-susceptible Candida albicans ATCC MYA-2876 measured after 48 hrs by CLSI M27-A3 protocol based method; format: functional; details: for MIC: Candida albicans, ATCC MYA-2876, 48 h
Candida albicans [5] = assay: Antifungal activity against fluconazole/ITC-resistant Candida albicans ATCC 90819 measured after 48 hrs by CLSI M27-A3 protocol based method; format: functional
Candida albicans [6] = assay: Antifungal activity against fluconazole/ITC-susceptible Candida albicans ATCC MYA-2310 measured after 48 hrs by CLSI M27-A3 protocol based method; format: functional
Candida albicans [7] = assay: Antifungal activity against fluconazole/ITC-resistant Candida albicans ATCC MYA-1237 measured after 48 hrs by CLSI M27-A3 protocol based method; format: functional; details: Candida albicans, ATCC MYA-1237, 48 h; read-out: MIC
Candida albicans [8] = assay: Antifungal activity against fluconazole/ITC-resistant Candida albicans ATCC MYA-1003 measured after 48 hrs by CLSI M27-A3 protocol based method; format: functional; details: Candida albicans, ATCC MYA-1003, 48 h; read-out: MIC
Nakaseomyces glabratus [9] = assay: Antifungal activity against Candida glabrata ATCC 2001 measured after 48 hrs by CLSI M27-A3 protocol based method; format: functional, CBS 138
Pichia kudriavzevii = assay: Antifungal activity against Candida krusei ATCC 6258 measured after 48 hrs by CLSI M27-A3 protocol based method; format: functional; details: for MIC: Pichia kudriavzevii, ATCC 6258, 48 h
Candida parapsilosis [10] = assay: Antifungal activity against Candida parapsilosis ATCC 22019 measured after 48 hrs by CLSI M27-A3 protocol based method; format: functional; details: for MIC: Lodderomyces parapsilosis, ATCC 22019, 48 h
Aspergillus nidulans = assay: Antifungal activity against Aspergillus nidulans ATCC 38163 measured after 48 hrs by CLSI M38-A2 protocol based method; format: functional; details: ATCC 38163, 48 h
Aspergillus flavus = assay: Antifungal activity against Aspergillus flavus ATCC MYA-3631 measured after 48 hrs by CLSI M38-A2 protocol based method; format: functional; details: ATCC MYA-3631, 48 h
Aspergillus terreus = assay: Antifungal activity against Aspergillus terreus ATCC MYA-3633 measured after 48 hrs by CLSI M38-A2 protocol based method; format: functional; details: ATCC MYA-3633, 48 h
Nakaseomyces glabratus [11] = assay: Antifungal activity against Candida glabrata isolate CG1 measured after 48 hrs by CLSI M27-A3 protocol based method; format: functional
Nakaseomyces glabratus [12] = assay: Antifungal activity against Candida glabrata isolate CG2 measured after 48 hrs by CLSI M27-A3 protocol based method; format: functional
Nakaseomyces glabratus [13] = assay: Antifungal activity against Candida glabrata isolate CG3 measured after 48 hrs by CLSI M27-A3 protocol based method; format: functional
Candida parapsilosis [14] = assay: Antifungal activity against Candida parapsilosis isolate CP1 measured after 48 hrs by CLSI M27-A3 protocol based method; format: functional; details: for MIC: Lodderomyces parapsilosis, isolate CP1, 48 h
Candida parapsilosis [15] = assay: Antifungal activity against Candida parapsilosis isolate CP2 measured after 48 hrs by CLSI M27-A3 protocol based method; format: functional; details: for MIC: Lodderomyces parapsilosis, isolate CP2, 48 h
Cryptococcus neoformans [16] = assay: Antifungal activity against Cryptococcus neoformans isolate CN1 measured after 48 hrs by CLSI M27-A3 protocol based method; format: functional; details: isolate CN1, 48 h
Cryptococcus neoformans [17] = assay: Antifungal activity against Cryptococcus neoformans isolate CN3 measured after 48 hrs by CLSI M27-A3 protocol based method; format: functional
Candida parapsilosis [18] = assay: Antifungal activity against Candida parapsilosis isolate CP3 measured after 48 hrs by CLSI M27-A3 protocol based method; format: functional; details: for MIC: Lodderomyces parapsilosis, isolate CP3, 48 h
Candida albicans [19] = assay: Induction of membrane permeabilization in Candida albicans ATCC 10231 assessed as membrane disruption at 4 times MIC after 1 hr by propidium iodide staining based fluorescence microscopy; format: functional, organism-based
Candida albicans [20] = assay: Antifungal activity against Candida albicans ATCC 10231 measured after 48 hrs in presence of 10% FBS by CLSI M27-A3 protocol based method; format: functional; details: Candida albicans, ATCC 10231, 48 h
[21] = Cryptococcus neoformans, isolate CN2, 48 h, read-out: MIC
[22] = Candida albicans, ATCC 64124, 48 h, read-out: MIC
[23] = Candida albicans, ATCC 90819, 48 h, read-out: MIC
[24] = Candida albicans, ATCC MYA-2310, 48 h, read-out: MIC
[25] = Nakaseomyces glabratus, CBS 138, 48 h, read-out: MIC
[26] = Nakaseomyces glabratus, 48 h, read-out: MIC
[27] = Nakaseomyces glabratus, isolate CG2, 48 h, read-out: MIC
[28] = Cryptococcus neoformans, isolate CN3, 48 h, read-out: MIC

With `CC[C@H](C)C[C@H](C)CCCCCCCCC(=O)N[C@H]1C[C@@H](O)[C@@H](NCCN)NC(=O)[C@@H]2[C@@H](O)CCN2C(=O)[C@H]([C@H](O)CCN)NC(=O)[C@H]([C@H](O)[C@@H](O)c2ccc(O)cc2)NC(=O)[C@@H]2C[C@@H](O)CN2C(=O)[C@H]([C@@H](C)O)NC1=O` [CASPOFUNGIN] the MIC (Cryptococcus neoformans [1]; [21]) was 25.8 µM (≈ 28.2 µg/mL), the MIC (Candida albicans [2]) was 0.8 µM (≈ 0.875 µg/mL) and the MIC (Candida albicans [3]; [22]) was 0.2 µM (≈ 0.219 µg/mL). For the same compound, the MIC (Candida albicans [4]) was 0.05 µM (≈ 0.0547 µg/mL), the MIC (Candida albicans [5]; [23]) was 0.1 µM (≈ 0.109 µg/mL) and the MIC (Candida albicans [6]; [24]) was 0.1 µM (≈ 0.109 µg/mL). The MIC (Candida albicans [7]) was 0.2 µM (≈ 0.219 µg/mL), the MIC (Candida albicans [8]) was 0.4 µM (≈ 0.437 µg/mL) and the MIC (Nakaseomyces glabratus [9]; [25]) was 0.05 µM (≈ 0.0547 µg/mL). It also gave an MIC (Pichia kudriavzevii) of 0.4 µM (≈ 0.437 µg/mL), an MIC (Candida parapsilosis [10]) of 1.6 µM (≈ 1.75 µg/mL) and an MIC (Aspergillus nidulans) greater than 25.8 µM. It also gave an MIC (Aspergillus flavus) greater than 25.8 µM, an MIC (Aspergillus terreus) greater than 25.8 µM and an MIC (Nakaseomyces glabratus [11]; [26]) of 1.6 µM (≈ 1.75 µg/mL). For the same compound, the MIC (Nakaseomyces glabratus [12]; [27]) was 0.2 µM (≈ 0.219 µg/mL), the MIC (Nakaseomyces glabratus [13]; [26]) was 0.8 µM (≈ 0.875 µg/mL) and the MIC (Candida parapsilosis [14]) was 0.4 µM (≈ 0.437 µg/mL). The MIC (Candida parapsilosis [15]) was 0.4 µM (≈ 0.437 µg/mL), the MIC (Cryptococcus neoformans [16]) was 12.9 µM (≈ 14.1 µg/mL) and the MIC (Cryptococcus neoformans [17]; [28]) was 12.9 µM (≈ 14.1 µg/mL). It also gave an MIC (Candida parapsilosis [18]) of 0.4 µM (≈ 0.437 µg/mL).
Compound `CCCCCCN(CCCCCC)CC(O)(Cn1cncn1)c1ccc(F)cc1F` (stereo not drawn) has an MIC (Cryptococcus neoformans [1]; [21]) greater than 74.1 µM, an MIC (Candida albicans [2]) greater than 74.1 µM and an MIC (Candida albicans [3]; [22]) greater than 74.1 µM. For the same compound, the MIC (Candida albicans [4]) was greater than 74.1 µM, the MIC (Candida albicans [5]; [23]) was greater than 74.1 µM and the MIC (Candida albicans [6]; [24]) was greater than 74.1 µM. The MIC (Candida albicans [7]) was greater than 74.1 µM, the MIC (Candida albicans [8]) was greater than 74.1 µM and the MIC (Nakaseomyces glabratus [9]; [25]) was greater than 74.1 µM. The MIC (Pichia kudriavzevii) was greater than 74.1 µM, the MIC (Candida parapsilosis [10]) was 74.1 µM (≈ 31.3 µg/mL) and the MIC (Aspergillus nidulans) was greater than 74.1 µM. It also gave an MIC (Aspergillus flavus) greater than 74.1 µM, an MIC (Aspergillus terreus) greater than 74.1 µM and an MIC (Nakaseomyces glabratus [11]; [26]) greater than 74.1 µM. For the same compound, the MIC (Nakaseomyces glabratus [12]; [27]) was greater than 74.1 µM, the MIC (Nakaseomyces glabratus [13]; [26]) was greater than 74.1 µM and the MIC (Candida parapsilosis [14]) was greater than 74.1 µM. For the same compound, the MIC (Candida parapsilosis [15]) was greater than 74.1 µM, the MIC (Cryptococcus neoformans [16]) was greater than 74.1 µM and the MIC (Cryptococcus neoformans [17]; [28]) was 37.1 µM (≈ 15.7 µg/mL). It also gave an MIC (Candida parapsilosis [18]) greater than 74.1 µM.
`OCCCCCCNCC(O)(Cn1cncn1)c1ccc(F)cc1F` (stereo not drawn) showed an MIC (Cryptococcus neoformans [1]; [21]) greater than 88.3 µM, an MIC (Candida albicans [2]) greater than 88.3 µM and an MIC (Candida albicans [3]; [22]) greater than 88.3 µM. It also gave an MIC (Candida albicans [4]) of 88.3 µM (≈ 31.3 µg/mL), an MIC (Candida albicans [5]; [23]) of 88.3 µM (≈ 31.3 µg/mL) and an MIC (Candida albicans [6]; [24]) greater than 88.3 µM. For the same compound, the MIC (Candida albicans [7]) was greater than 88.3 µM, the MIC (Candida albicans [8]) was greater than 88.3 µM and the MIC (Nakaseomyces glabratus [9]; [25]) was greater than 88.3 µM. For the same compound, the MIC (Pichia kudriavzevii) was greater than 88.3 µM, the MIC (Candida parapsilosis [10]) was greater than 88.3 µM and the MIC (Aspergillus nidulans) was greater than 88.3 µM. The MIC (Aspergillus flavus) was greater than 88.3 µM, the MIC (Aspergillus terreus) was greater than 88.3 µM and the MIC (Nakaseomyces glabratus [11]; [26]) was greater than 88.3 µM. For the same compound, the MIC (Nakaseomyces glabratus [12]; [27]) was greater than 88.3 µM, the MIC (Nakaseomyces glabratus [13]; [26]) was greater than 88.3 µM and the MIC (Candida parapsilosis [14]) was 88.3 µM (≈ 31.3 µg/mL). It also gave an MIC (Candida parapsilosis [15]) of 88.3 µM (≈ 31.3 µg/mL), an MIC (Cryptococcus neoformans [16]) greater than 88.3 µM and an MIC (Cryptococcus neoformans [17]; [28]) greater than 88.3 µM. The MIC (Candida parapsilosis [18]) was 88.3 µM (≈ 31.3 µg/mL).
In the case of `CCCCCCCCCCCCCCSC[C@H]1O[C@H](O[C@H]2[C@H](O)[C@@H](O[C@H]3O[C@H](CO)[C@@H](O)[C@H](N)[C@H]3O)[C@H](N)C[C@@H]2N)[C@H](N)[C@@H](O)[C@@H]1O`, the Activity (Candida albicans [19]) is reported as “Active”.
In the case of `C[C@@H]1[C@H](O)[C@@H](C)/C=C/C=C/C=C/C=C/C=C/C=C/C=C/[C@H](O[C@@H]2O[C@H](C)[C@@H](O)[C@H](N)[C@@H]2O)C[C@@H]2O[C@](O)(C[C@@H](O)C[C@@H](O)[C@H](O)CC[C@@H](O)C[C@@H](O)CC(=O)O[C@H]1C)C[C@H](O)[C@H]2C(=O)O` [AMPHOTERICIN B], the MIC (Candida albicans [4]) is reported as 2.1 µM (≈ 1.94 µg/mL), the MIC (Candida albicans [5]; [23]) is reported as 1.1 µM (≈ 1.02 µg/mL) and the MIC (Candida albicans [6]; [24]) is reported as 2.1 µM (≈ 1.94 µg/mL). For the same compound, the MIC (Nakaseomyces glabratus [9]; [25]) was 2.1 µM (≈ 1.94 µg/mL), the MIC (Candida parapsilosis [10]) was 2.1 µM (≈ 1.94 µg/mL) and the MIC (Candida albicans [20]) was 7.8 µg/mL.
With `OC(Cn1cncn1)(Cn1cncn1)c1ccc(F)cc1F` [FLUCONAZOLE] the MIC (Cryptococcus neoformans [1]) was greater than 102.1 µM, the MIC (Candida albicans [3]) was greater than 408.1 µM and the “MIC=<50” value (Candida albicans [4]) was 50.9 µM (≈ 15.6 µg/mL). The MIC (Candida albicans [5]) was greater than 408.1 µM, the MIC (Candida albicans [6]) was greater than 408.1 µM and the MIC (Nakaseomyces glabratus [9]) was “>=102.2 - 204.1 uM”. For the same compound, the “MIC=<50” value (Pichia kudriavzevii) was greater than 102.2 µM, the “MIC=<50” value (Candida parapsilosis [10]) was 6.4 µM (≈ 1.96 µg/mL) and the MIC (Nakaseomyces glabratus [11]) was greater than 102.1 µM. The MIC (Nakaseomyces glabratus [12]) was greater than 102.1 µM, the MIC (Nakaseomyces glabratus [13]) was greater than 102.1 µM and the “MIC=<50” value (Candida parapsilosis [14]) was 3.2 µM (≈ 0.98 µg/mL). The “MIC=<50” value (Candida parapsilosis [15]) was 3.2 µM (≈ 0.98 µg/mL), the MIC (Cryptococcus neoformans [17]) was greater than 102.1 µM and the “MIC=<50” value (Candida parapsilosis [18]) was 3.2 µM (≈ 0.98 µg/mL).
